Test results: article PMC9158485, “Highly Efficient Biotransformation of Phenolic Glycosides Using a Recombinant β-Glucosidase From White Rot Fungus Trametes trogii” (Frontiers in Microbiology, 2022)

Test system: T1, TtBgl3
T1 construct: calculated 97 kDa; primer-encoded N-terminus MSRDFL, C-terminus FTWNGV; GH3, GH3_C and Fn3-like domains
Experiment: release of 4-nitrophenol at […] nm, Lineweaver-Burk
Assay type: biochemical, Trametes trogii
Conditions: 50°C, pH 5.5 (methods: phosphate citrate buffer 200 mM, pH 5.0, 55°C)

Km: 550 µM
SMILES: O=[N+]([O-])c1ccc(O[C@@H]2O[C@H](CO)[C@@H](O)[C@H](O)[C@H]2O)cc1 [4-nitrophenyl β-D-glucopyranoside]
